From patent publication US7524823B2, “Macrolides” (Basilea Pharmaceutica AG, priority 2005, dated 2009)
Converted amounts (≈) assume the structure as drawn. Where two headings read alike, the source gives them in different places.

How the values were obtained:
Assay type in all cases: cell-based
[1] = test system: Propionibacterium acnes SW101T; test: MIC by anaerobic broth microdilution (WCB, NCCLS); conditions: code K: Propionibacterium acnes SW101T, 35-37° C., 48 h
Experimental: (§1) MIC values towards strains of propionibacteria were obtained by broth microdilution using WCB (Anaerobe Broth MIC, Difco) according to NCCLS guidelines (National Committee for Clinical Laboratory Standards. Methods for anti-microbial susceptibility testing of anaerobic bacteria, 5th ed.; approved standard. NCCLS publication no. M11-A5. NCCLS, Wayne, Pa., 2001). Microtitre plates were loaded into 7-L GENbox anaerobic incubation jars (BioMérieux, cat. no. 96 128) fitted with anaerobic atmosphere generators (BioMérieux, cat. no. 96 124) and a Dry Anaerobic Indicator Strip (BBL, cat. no. 271051). Under these conditions, an O2 concentration <0.1% was achieved by 2.5 h, and a CO2 concentration >15% by 24 h. MIC values were read after incubation at 35-37° C. for 48 h (Table 3).

[2] = test system: Propionibacterium acnes EG7NS; test: MIC by anaerobic broth microdilution (WCB, NCCLS); conditions: code I: Propionibacterium acnes EG7NS, anaerobic, 35-37° C., 48 h
Experimental: as §1

[3] = test system: Streptococcus pneumoniae 1/1; test: MIC by broth microdilution (CAMHB + 5% horse serum, NCCLS); conditions: code D: Streptococcus pneumoniae 1/1
Experimental: (§2) MIC values for non-anaerobes were obtained by broth microdilution using CAMHB (BBL) according to NCCLS guidelines (National Committee for Clinical Laboratory Standards. Methods for dilution antimicrobial susceptibility tests for bacteria that grow aerobically, 5th ed. Approved standard M7-A6. NCCLS, Wayne, Pa., 2003). Drugs were dissolved in DMSO prior to dispensing into 96-well microtitre plates; the concentration of DMSO in assay wells never exceeded 2% (v/v). CAMHB was supplemented with 5% (v/v) horse serum (Sigma, cat. no. H-1270) in lieu of laked horse blood for cultivation of Streptococcus pneumoniae, and with 5% (v/v) Fildes enrichment (BBL, cat. no. 220810) supernate in lieu of Haemophilus Test Medium and additives for cultivation of Haemophilus influenzae (Pankuch G A, Hoellman D B, Lin G, Bajaksouzian S, Jacobs M R, Appelbaum P C. Activity of HMR 3647 compared to those of five agents against Haemophilus influenzae and Moraxella catarrhalis by MIC determination and time-kill assay. Antimicrob. Agents Chemother. November 1998; 42(11): 3032-4). Activities expressed as the minimal inhibitory concentrations (MICs) (μg/ml) are given in the following Table 3, and the microorganisms used for testing are listed in Table 2 below.

[4] = test system: Streptococcus pneumoniae SL199T; test: as above; conditions: code E: Streptococcus pneumoniae SL199T
Experimental: as §2

[5] = test system: Streptococcus pneumoniae Tupelo; test: as above; conditions: code F: Streptococcus pneumoniae Tupelo
Experimental: as §2

[6] = test system: Escherichia coli ATCC 25922; test: MIC by broth microdilution (CAMHB, NCCLS); conditions: code C: Escherichia coli ATCC 25922
Experimental: as §2

[7] = test system: Staphylococcus aureus ATCC 29213; test: MIC by broth microdilution (CAMHB, NCCLS); conditions: code A: Staphylococcus aureus ATCC 29213
Experimental: as §2

[8] = test system: Staphylococcus aureus 1086; test: MIC by broth microdilution (CAMHB, NCCLS); conditions: code B: Staphylococcus aureus 1086
Experimental: as §2

[9] = test system: Haemophilus influenzae 12214; test: MIC by broth microdilution (CAMHB + 5% Fildes enrichment, NCCLS); conditions: code G: Haemophilus influenzae 12214
Experimental: as §2

[10] = test system: Haemophilus influenzae QK50; test: as above; conditions: code H: Haemophilus influenzae QK50
Experimental: as §2

[11] = Cutibacterium acnes, read-out: MIC

| SMILES | MIC [1, 11] [µg/mL] | MIC [2, 11] [µg/mL] | MIC [3] | MIC [4] [µg/mL] | MIC [5] [µg/mL] | MIC [6] | MIC [7] [µg/mL] | MIC [8] [µg/mL] | MIC [1] [µg/mL] | MIC [2] | MIC [9] [µg/mL] | MIC [10] [µg/mL] |
| --- | --- | --- | --- | --- | --- | --- | --- | --- | --- | --- | --- | --- |
| CCC[C@@H]1C[C@@H](C(=O)N[C@@H]([C@H]2O[C@H](SC)[C@H](O)[C@@H](O)[C@H]2O)[C@H](C)Cl)N(C)C1 [Clindamycin, reference compound] | > 32 | ≤ 0.06 | – | – | – | – | – | – | – | – | – | – |
| CC[C@H]1OC(=O)[C@H](C)[C@@H](O[C@H]2C[C@@](C)(OC)[C@@H](O)[C@H](C)O2)[C@H](C)[C@@H](O[C@@H]2O[C@H](C)C[C@H](N(C)C)[C@H]2O)[C@](C)(OC)C[C@@H](C)C(=O)[C@H](C)[C@H]2[C@H](SCCOCn3cnc4cccnc43)C(=O)O[C@@]21C [Example 2] | – | – | <=0.06 μg/ml | 0.5 | 0.5 | >32 µg/mL | 2 (≈ 2.04 µM) | 8 (≈ 8.17 µM) | 16 (≈ 16.3 µM) | <=0.06 μg/ml | 4 | 8 |
| CC[C@H]1OC(=O)[C@H](C)[C@@H](O[C@H]2C[C@@](C)(OC)[C@@H](O)[C@H](C)O2)[C@H](C)[C@@H](O[C@@H]2O[C@H](C)C[C@H](N(C)C)[C@H]2O)[C@](C)(OC)C[C@@H](C)C(=O)[C@H](C)[C@H]2[C@H](SCCCc3ccc4ncccc4c3)C(=O)O[C@@]21C [Example 3] | – | – | 0.25 µg/mL | 2 | 8 | >32 µg/mL | 4 (≈ 4.11 µM) | 8 (≈ 8.22 µM) | 16 (≈ 16.4 µM) | 0.25 µg/mL (≈ 0.257 µM) | >32 | 16 |
| CC[C@H]1OC(=O)[C@H](C)[C@@H](O[C@H]2C[C@@](C)(OC)[C@@H](O)[C@H](C)O2)[C@H](C)[C@@H](O[C@@H]2O[C@H](C)C[C@H](N(C)C)[C@H]2O)[C@](C)(OC)C[C@@H](C)C(=O)[C@H](C)[C@H]2[C@H](SCCCN3C(=O)c4cccnc4C3=O)C(=O)O[C@@]21C [Example 5] | – | – | <=0.06 μg/ml | 8 | 16 | >32 µg/mL | 2 (≈ 2.02 µM) | >32 | 16 (≈ 16.1 µM) | <=0.06 μg/ml | 8 | 8 |
| CC[C@H]1OC(=O)[C@H](C)[C@@H](O[C@H]2C[C@@](C)(OC)[C@@H](O)[C@H](C)O2)[C@H](C)[C@@H](O[C@@H]2O[C@H](C)C[C@H](N(C)C)[C@H]2O)[C@](C)(OC)C[C@@H](C)C(=O)[C@H](C)[C@H]2[C@H](SCC(=O)NCc3ccccn3)C(=O)O[C@@]21C [Example 6] | – | – | <=0.06 μg/ml | 1 | 2 | >=32 μg/ml | 0.5 (≈ 0.525 µM) | >32 | >32 | <=0.06 μg/ml | 2 | 2 |
| CC[C@H]1OC(=O)[C@H](C)[C@@H](O[C@H]2C[C@@](C)(OC)[C@@H](O)[C@H](C)O2)[C@H](C)[C@@H](O[C@@H]2O[C@H](C)C[C@H](N(C)C)[C@H]2O)[C@](C)(OC)C[C@@H](C)C(=O)[C@H](C)[C@H]2[C@H](S(=O)(=O)CCn3cnc4c(N)ncnc43)C(=O)O[C@@]21C [Example 7] | – | – | 2 µg/mL | 4 | 16 | >32 µg/mL | 32 (≈ 32.1 µM) | >32 | 8 (≈ 8.02 µM) | 2 µg/mL (≈ 2.01 µM) | >32 | >32 |
